{
  "source": "patent US20240349723A1",
  "about": "(priority 2023, published 2024)",
  "key": {"CLas": {"test_system": "CLas", "type": "in vivo, Candidatus Liberibacter asiaticus"}, "Diaphorina citri": {"test_system": "Diaphorina citri", "type": "in vivo", "conditions": "for Nymph mortality of D. citri: dead psyllids counted daily, 21 days, FIG. 9; for live adult psyllids collected from the ten leaves: after 21 day assay, 10 nymphs per excised leaf, peptides 1 mg/mL, PMB 0.5 mg/mL"}, "[1]": {"test_system": "'Candidatus Liberibacter asiaticus' (CLas)", "type": "in vivo", "conditions": "excised CLas-infected citrus leaves, 1 mg/ml, seven-day incubation, FIG. 5"}, "[2]": {"test_system": "Liberibacter crescens strain BT-1"}, "[3]": {"conditions": "adults developed on treated CLas-infected leaves, 21 days, FIG. 7"}},
  "note": "Entries after “also recorded” stand apart in the source; their conditions may differ. Where two headings read alike, the source gives them in different places. Where a SMILES comes first, the peptide text is derived from it. Where no end group is shown, it is not given here.",
  "data": [
    {"compound": "QNLCVGSPLPLQCLKFICRC (listed as Medicago truncatula) [SEQ ID NO: 14]", "values": [
      {"measurement": "number of infective Diaphorina citri adults that develop on treated leaves", "setting": "CLas; leaf delivery, FIG. 7", "value": "reduces the number of infective Diaphorina citri adults"},
      {"measurement": "Nymph mortality of D. citri", "setting": "Diaphorina citri", "value": "Nymph mortality observed"}
    ]},
    {"compound": "YSSCATKEECKCPDNKRPAC (listed as Medicago truncatula) [SEQ ID NO: 8]", "values": [
      {"measurement": "adult insects with more than 100 CLas cell equivalents per insect", "setting": "CLas; count out of adults collected, 21 days, FIG. 7", "value": "2/84"},
      {"measurement": "number of infective Diaphorina citri adults that develop on treated leaves", "setting": "CLas; leaf delivery, FIG. 7", "value": "reduces the number of infective Diaphorina citri adults"},
      {"measurement": "live adult psyllids collected from the ten leaves", "setting": "Diaphorina citri", "value": 84}
    ]},
    {"compound": "LYCNVGSHMECVKHQCKCIK (listed as Medicago truncatula) [SEQ ID NO: 11]", "values": [
      {"measurement": "number of infective Diaphorina citri adults that develop on treated leaves", "setting": "CLas; leaf delivery, FIG. 7", "value": "reduces the number of infective Diaphorina citri adults"},
      {"measurement": "Nymph mortality of D. citri", "setting": "Diaphorina citri", "value": "Nymph mortality observed"}
    ]},
    {"compound": "polymyxin B sulfate [PMB, reference compound]", "values": [
      {"measurement": "development of psyllid with more than 100 CLas cells per insect (high titer)", "setting": "CLas; [3]", "value": "prevented the development of high titer psyllid"},
      {"measurement": "CLas titer in the excised leaves", "setting": "CLas; excised leaf acquisition assay, FIG. 6A, differences not statistically significant", "value": "reduced CLas titer in the excised leaves"},
      {"measurement": "CLas 16S transcript-to-gene ratio (CLas rRNA : CLas rDNA), CLas activity", "setting": "[1]", "value": "greater declines in detectable CLas activity"},
      {"measurement": "performance in the bacterial growth assays", "setting": "[2]; positive growth inhibition control, 0.5 mg/ml", "value": "excellent performance as an antimicrobial peptide"},
      {"measurement": "live adult psyllids collected from the ten leaves", "setting": "Diaphorina citri", "value": 87}
    ]},
    {"compound": "LRFRSVFHIFASVLAVAKKH [compound 6]", "values": [
      {"measurement": "Percent growth rate inhibition L. crescens", "setting": "[2]; L. crescens strain BT-1, BM7 medium, final peptide 1 or 0.1 mg/ml, O.D. 600 nm over seven days", "value": 66.6, "unit": "%"}
    ]},
    {"compound": "RGCKRDKDCPQFRGVNIRCR (listed as Medicago truncatula) [SEQ ID NO: 9]", "values": [
      {"measurement": "development of psyllid with more than 100 CLas cells per insect (high titer)", "setting": "CLas; in vivo", "value": "completely blocking the development of psyllid with more than 100 CLas cells; also recorded: No highly infected adults develop"},
      {"measurement": "number of infective Diaphorina citri adults that develop on treated leaves", "setting": "CLas; in vivo", "value": "reduces the number of infective Diaphorina citri adults"},
      {"measurement": "live adult psyllids collected from the ten leaves", "setting": "Diaphorina citri", "value": 80}
    ]},
    {"compound": "VKCVLPRIARCIKYRCQCRN (listed as Medicago truncatula) [SEQ ID NO: 10]", "values": [
      {"measurement": "development of psyllid with more than 100 CLas cells per insect (high titer)", "setting": "CLas; [3]", "value": "completely blocking the development of psyllid with more than 100 CLas cells; also recorded: No highly infected adults develop"},
      {"measurement": "number of infective Diaphorina citri adults that develop on treated leaves", "setting": "CLas; leaf delivery, FIG. 7", "value": "reduces the number of infective Diaphorina citri adults"},
      {"measurement": "live adult psyllids collected from the ten leaves", "setting": "Diaphorina citri", "value": 74}
    ]},
    {"compound": "CC[C@H](C)[C@H](NC(=O)[C@H](CC(N)=O)NC(=O)[C@@H](NC(=O)CNC(=O)[C@H](CCCNC(=N)N)NC(=O)[C@H](Cc1ccccc1)NC(=O)[C@H](CCC(N)=O)NC(=O)[C@@H]1CCCN1C(=O)[C@H](CS)NC(=O)[C@H](CC(=O)O)NC(=O)[C@H](CCCCN)NC(=O)[C@H](CC(=O)O)NC(=O)[C@H](CCCNC(=N)N)NC(=O)[C@H](CCCCN)NC(=O)[C@H](CS)NC(=O)CNC(=O)[C@@H](N)CCCNC(=N)N)C(C)C)C(=O)N[C@@H](CCCNC(=N)N)C(=O)N[C@@H](CS)C(=O)N[C@@H](CCCNC(=N)N)C(=O)O", "note": "[compound 9] (H-RGCKRDKDCPQFRGVNIRCR-OH; N-terminus and C-terminus assumed)", "values": [
      {"measurement": "Percent growth rate inhibition L. crescens", "setting": "[2]; 0.1 mg/ml", "value": 65.4, "unit": "%"}
    ]}
  ]
}
